Active and inactive are the calls of the source. No cut-off for these calls is given here. Square brackets hold non-standard residues; d marks the D form. Peptide text beside a SMILES is read from it. * marks the point of attachment. Phe(F5) = N[C@@H](Cc1c(F)c(F)c(F)c(F)c1F)C(=O)O; β3hW = N[C@H](CC(=O)O)Cc1c[nH]c2ccccc12; 1Nal = N[C@@H](Cc1cccc2ccccc12)C(=O)O; β3hY = N[C@H](CC(=O)O)Cc1ccc(O)cc1; Asu = N[C@@H](CCCCCC(=O)O)C(=O)O; β3hL = CC(C)C[C@H](N)CC(=O)O; hLys = NCCCCC[C@H](N)C(=O)O; Carboxymethyl = O=C(O)C*; CH2CH2COOH = O=C(O)CC*; Aib = CC(C)(N)C(=O)O; X1 = CCC(=O)CC*; NHOH = ON*
How the values were obtained:
[1] = target: T1, Protein deacetylase HDAC6 (Homo sapiens, UniProt Q9UBN7)
T1 sequence (Q9UBN7 whole entry): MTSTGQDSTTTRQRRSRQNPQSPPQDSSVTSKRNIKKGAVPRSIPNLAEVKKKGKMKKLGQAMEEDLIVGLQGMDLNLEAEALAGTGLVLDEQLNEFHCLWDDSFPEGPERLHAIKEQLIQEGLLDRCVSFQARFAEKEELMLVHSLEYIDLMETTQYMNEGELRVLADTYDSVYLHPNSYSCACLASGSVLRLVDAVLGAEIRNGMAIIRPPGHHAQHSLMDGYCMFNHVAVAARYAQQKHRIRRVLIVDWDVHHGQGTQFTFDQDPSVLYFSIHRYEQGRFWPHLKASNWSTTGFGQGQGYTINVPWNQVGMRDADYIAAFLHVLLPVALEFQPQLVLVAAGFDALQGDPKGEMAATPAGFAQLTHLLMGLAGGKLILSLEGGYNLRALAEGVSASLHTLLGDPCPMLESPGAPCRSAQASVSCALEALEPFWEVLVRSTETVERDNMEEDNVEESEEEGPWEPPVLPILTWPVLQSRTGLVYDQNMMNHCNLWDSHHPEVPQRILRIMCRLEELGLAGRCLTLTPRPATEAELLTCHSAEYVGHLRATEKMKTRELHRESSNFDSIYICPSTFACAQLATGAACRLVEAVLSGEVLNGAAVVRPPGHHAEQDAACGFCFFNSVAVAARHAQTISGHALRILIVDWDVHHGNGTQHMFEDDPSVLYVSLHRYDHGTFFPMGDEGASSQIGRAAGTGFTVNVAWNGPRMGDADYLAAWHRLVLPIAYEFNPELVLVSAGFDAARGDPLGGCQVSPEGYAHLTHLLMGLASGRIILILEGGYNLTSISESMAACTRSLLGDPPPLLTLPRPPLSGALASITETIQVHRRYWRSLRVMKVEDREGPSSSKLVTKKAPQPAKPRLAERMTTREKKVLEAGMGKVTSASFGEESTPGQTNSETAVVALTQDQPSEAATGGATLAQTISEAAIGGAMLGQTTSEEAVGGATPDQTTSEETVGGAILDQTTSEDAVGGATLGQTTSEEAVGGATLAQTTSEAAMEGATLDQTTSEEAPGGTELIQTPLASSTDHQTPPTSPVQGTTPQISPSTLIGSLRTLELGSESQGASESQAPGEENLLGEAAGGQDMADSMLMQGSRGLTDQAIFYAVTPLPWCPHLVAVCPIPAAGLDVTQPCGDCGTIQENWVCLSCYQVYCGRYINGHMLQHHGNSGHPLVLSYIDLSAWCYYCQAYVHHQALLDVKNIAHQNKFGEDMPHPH
Description: Inhibition of human recombinant HDAC6 after 30 mins by fluorimetric assay

[2] = tested on: MCF7; test: cells; conditions: Homo sapiens, MCF7, 72 h
[3] = tested on: Jurkat; test: cells; conditions: Homo sapiens, 72 h
[4] = target: T2, Protein deacetylase HDAC6 (Homo sapiens) (UniProt Q9UBN7); test: Inhibition of HDAC6 in human Jurkat cells assessed as acetylated alpha-tubulin level at 0.2 to 20 uM after 24 hrs by Western blotting; type: cell-based
T2 sequence (whole entry): T1 sequence (Q9UBN7 whole entry)

[5] = tested on: HeLa; test: cells; conditions: Homo sapiens, 72 h
[6] = target: Histone deacetylase (Homo sapiens) (UniProt Q13547+O15379+Q9UBN7+Q92769+Q9UQL6+Q8WUI4+Q9BY41+Q96DB2+P56524+Q9UKV0+Q969S8); test: Inhibition of class 1 HDAC in human Jurkat cells assessed as acetylated histone H3 level at 0.2 to 20 uM after 24 hrs by Western blotting; type: cell-based
[7] = target: Histone deacetylase 3 (Homo sapiens, UniProt O15379)
Histone deacetylase 3, sequence (O15379 whole entry): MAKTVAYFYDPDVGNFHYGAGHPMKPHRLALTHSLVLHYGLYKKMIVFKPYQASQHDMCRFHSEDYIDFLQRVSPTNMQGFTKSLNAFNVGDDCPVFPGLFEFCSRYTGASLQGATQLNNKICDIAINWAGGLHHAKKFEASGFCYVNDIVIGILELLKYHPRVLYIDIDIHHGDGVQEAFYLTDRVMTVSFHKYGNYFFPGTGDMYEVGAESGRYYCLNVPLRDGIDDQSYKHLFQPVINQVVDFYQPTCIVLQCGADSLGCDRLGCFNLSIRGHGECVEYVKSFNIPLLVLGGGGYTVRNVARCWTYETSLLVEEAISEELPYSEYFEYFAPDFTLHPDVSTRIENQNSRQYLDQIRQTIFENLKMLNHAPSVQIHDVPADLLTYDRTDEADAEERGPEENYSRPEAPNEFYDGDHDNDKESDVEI
Description: Inhibition of human recombinant HDAC3 after 30 mins by fluorimetric assay

[8] = target: T3, Histone deacetylase 8 (Homo sapiens, UniProt Q9BY41)
T3 sequence (Q9BY41 whole entry): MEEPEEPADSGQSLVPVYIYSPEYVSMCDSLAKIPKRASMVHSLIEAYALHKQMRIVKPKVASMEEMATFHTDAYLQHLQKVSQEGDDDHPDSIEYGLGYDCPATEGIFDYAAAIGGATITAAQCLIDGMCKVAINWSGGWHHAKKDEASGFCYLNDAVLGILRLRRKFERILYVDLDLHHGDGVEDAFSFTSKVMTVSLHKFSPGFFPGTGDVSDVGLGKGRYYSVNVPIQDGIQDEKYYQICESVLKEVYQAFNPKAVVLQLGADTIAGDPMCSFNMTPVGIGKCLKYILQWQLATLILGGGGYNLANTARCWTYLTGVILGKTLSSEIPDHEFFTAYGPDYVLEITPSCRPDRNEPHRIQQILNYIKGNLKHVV
Description: Inhibition of human recombinant HDAC8 after 30 mins by fluorimetric assay

[9] = target: Histone deacetylase 1 (Homo sapiens, UniProt Q13547)
Histone deacetylase 1, sequence (Q13547 whole entry): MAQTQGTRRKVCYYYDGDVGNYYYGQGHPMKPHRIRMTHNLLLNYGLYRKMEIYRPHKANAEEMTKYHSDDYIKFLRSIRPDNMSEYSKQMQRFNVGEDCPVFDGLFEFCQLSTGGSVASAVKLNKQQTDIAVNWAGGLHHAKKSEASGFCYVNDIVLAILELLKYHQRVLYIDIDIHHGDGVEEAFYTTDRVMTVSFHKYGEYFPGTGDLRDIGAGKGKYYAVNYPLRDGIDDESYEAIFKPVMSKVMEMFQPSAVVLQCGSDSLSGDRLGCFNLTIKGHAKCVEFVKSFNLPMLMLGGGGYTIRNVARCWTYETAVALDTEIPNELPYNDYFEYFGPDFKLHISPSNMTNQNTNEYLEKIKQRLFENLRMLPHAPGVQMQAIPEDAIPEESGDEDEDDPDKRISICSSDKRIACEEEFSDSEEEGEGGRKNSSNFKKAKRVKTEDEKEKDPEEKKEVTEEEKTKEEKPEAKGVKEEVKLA
Description: Inhibition of human recombinant HDAC1 after 30 mins by fluorimetric assay

[10] = target: Histone deacetylase; type: cell-based, Homo sapiens; conditions: hela
Description: Inhibition of HDAC in human HeLa cell cytosolic extract after 30 mins by fluorimetric assay

[11] = tested on: K562; test: cells; conditions: Homo sapiens, K562, 72 h
[12] = cells; conditions: Homo sapiens, KYO1, 72 h
[13] = target: Histone deacetylase; type: cell-based, Homo sapiens; conditions: hela; remark: listed apart in the source
Description: Inhibition of HDAC in human HeLa cell nuclear extract after 30 mins by fluorimetric assay

| SMILES | IC50 [1] [µM] | IC50 [7] [µM] | IC50 [8] [µM] | IC50 [9] [µM] | further results |
| --- | --- | --- | --- | --- | --- |
| CC(=O)NCCCC[C@@H]1NC(=O)C[C@H](Cc2ccc(O)cc2)NC(=O)[C@H](Cc2cccc3ccccc23)NC(=O)[C@H](CCCCCC(=O)O)NC1=O (cyclo([1Nal][β3hY]K(Ac)[Asu])) | 4.4 |  |  |  |  |
| N=C(N)NCCC[C@@H]1NC(=O)C[C@H](Cc2ccc(O)cc2)NC(=O)[C@H](CC(=O)O)NC(=O)[C@H](CCCCCC(=O)NO)NC1=O (cyclo([Asu](NHOH)D[β3hY]R)) |  |  |  |  | GI50 [2]: > 20 µM; GI50 [3]: > 20 µM; Activity [4]: Active; GI50 [5]: 9 µM; Activity [6]: inactive |
| CC(C)C[C@H]1CC(=O)N[C@@H](C)C(=O)N[C@@H](CSCC(=O)O)C(=O)N[C@@H](Cc2c[nH]c3ccccc23)C(=O)N1 (cyclo(C(Carboxymethyl)W[β3hL]A)) | > 10 | > 10 | 9.7 | > 10 |  |
| CC(C)C[C@H]1CC(=O)N[C@@H](C)C(=O)N[C@@H](CCCCCC(=O)NO)C(=O)N[C@@H](Cc2c[nH]c3ccccc23)C(=O)N1 (cyclo([Asu](NHOH)W[β3hL]A)) |  |  |  |  | GI50 [3]: 1.7 µM |
| O=C(O)CCCCC[C@@H]1NC(=O)[C@H](Cc2c(F)c(F)c(F)c(F)c2F)NC(=O)C[C@H](Cc2ccc(O)cc2)NC(=O)[C@H](Cc2cccc3ccccc23)NC1=O (cyclo([1Nal][β3hY][Phe(F5)][Asu])) | > 10 |  | 6.7 | 1 |  |
| N=C(N)NCCC[C@@H]1NC(=O)C[C@H](Cc2ccc(O)cc2)NC(=O)[C@H](Cc2cccc3ccccc23)NC(=O)[C@H](CCCCCC(=O)O)NC1=O (cyclo([Asu][1Nal][β3hY]R)) |  |  | 1.4 |  |  |
| CC(C)C[C@H]1CC(=O)N[C@@H](C)C(=O)N[C@@H](CCCCCC(=O)O)C(=O)N[C@@H](Cc2ccccc2)C(=O)N1 (cyclo(A[Asu]F[β3hL])) |  |  |  |  | IC50 [10]: 0.541 µM |
| O=C(O)CCCCC[C@@H]1NC(=O)[C@H]2CCCCN2C(=O)C[C@H](Cc2ccccc2)NC(=O)[C@H](Cc2c[nH]c3ccccc23)NC1=O |  |  |  |  | IC50 [10]: 0.791 µM |
| CC(C)C[C@H]1CC(=O)N[C@@H](Cc2ccccc2)C(=O)N[C@@H](CCCCCC(=O)NO)C(=O)N[C@@H](Cc2c[nH]c3ccccc23)C(=O)N1 (cyclo([Asu](NHOH)W[β3hL]F)) | 0.07 | 0.031 |  |  | GI50 [3]: 1.3 µM; GI50 [11]: 1.9 µM; GI50 [12]: 1.9 µM |
| CCC(=O)CCCCC[C@@H]1NC(=O)[C@H](CCCCNC(C)=O)NC(=O)C[C@H](CC(C)C)NC(=O)[C@H](Cc2c[nH]c3ccccc23)NC1=O |  |  |  |  | GI50 [2]: > 20 µM; GI50 [3]: > 20 µM; GI50 [5]: > 20 µM |
| O=C(O)CCCCC[C@@H]1NC(=O)[C@H](Cc2ccccc2)NC(=O)C[C@H](Cc2c[nH]c3ccccc23)NC(=O)[C@H](Cc2cccc3ccccc23)NC1=O (cyclo([1Nal][β3hW]F[Asu])) | 8 | 1.67 |  | 0.46 | IC50 [10]: 1.009 µM; IC50 [13]: 1.04 µM |
| CC(C)C[C@H]1CC(=O)N[C@@H](Cc2ccccc2)C(=O)N[C@@H](CCCCCC(=O)O)C(=O)N[C@@H](Cc2cccc3ccccc23)C(=O)N1 (cyclo([1Nal][β3hL]F[Asu])) | 5.8 | 0.69 | 0.53 | 0.068 | GI50 [2]: > 20 µM; GI50 [3]: > 20 µM; Activity [4]: inactive; GI50 [5]: > 20 µM; IC50 [10]: 0.742 µM; GI50 [11]: > 20 µM; IC50 [13]: 0.253 µM; Activity [6]: Active; GI50 [12]: > 20 µM |
| CC(=O)NCCCCC[C@@H]1NC(=O)C[C@H](CC(C)C)NC(=O)[C@H](Cc2cccc3ccccc23)NC(=O)[C@H](CCCCCC(=O)O)NC1=O (cyclo([1Nal][β3hL][hLys](Ac)[Asu])) | > 10 | 0.032 |  | 0.008 | GI50 [3]: 0.3 µM; GI50 [5]: 18 µM; GI50 [11]: 30 µM; IC50 [13]: 0.017 µM; GI50 [12]: 43 µM |
| CC(C)C[C@H]1CC(=O)N[C@@H](CCCNC(=N)N)C(=O)N[C@@H](CCCCCC(=O)O)C(=O)N[C@@H](Cc2cccc3ccccc23)C(=O)N1 (cyclo([Asu][1Nal][β3hL]R)) | 1.4 | 0.262 | 0.607 | 0.178 |  |
| CCC(=O)CCCCC[C@@H]1NC(=O)[C@H](C)NC(=O)C[C@H](CC(C)C)NC(=O)[C@H](Cc2c[nH]c3ccccc23)NC1=O |  |  |  |  | GI50 [2]: > 20 µM; GI50 [11]: 2 µM |
| CC(=O)NCCCC[C@@H]1NC(=O)C[C@H](CC(C)C)NC(=O)[C@H](Cc2c[nH]c3ccccc23)NC(=O)[C@H](CSCCC(=O)O)NC1=O (cyclo(C(CH2CH2COOH)W[β3hL]K(Ac))) | > 10 | > 10 | 7.04 |  |  |
| CC1(C)NC(=O)C[C@H](Cc2c[nH]c3ccccc23)NC(=O)[C@H](Cc2cccc3ccccc23)NC(=O)[C@H](CCCCCC(=O)O)NC1=O (cyclo([1Nal][β3hW][Aib][Asu])) | 3.7 |  |  |  |  |
| CC[C@]1(O)C[C@@H]2CN(CCc3c([nH]c4ccccc34)[C@@](C(=O)OC)(c3cc4c(cc3OC)N(C)[C@H]3[C@@](O)(C(=O)OC)[C@H](OC(C)=O)[C@]5(CC)C=CCN6CC[C@]43[C@@H]65)C2)C1 [VINBLASTINE] |  |  |  |  | GI50 [2]: 10 µM; GI50 [12]: < 0.1 µM |
| CC(C)C[C@H]1CC(=O)NC(C)(C)C(=O)N[C@@H](CCCCCC(=O)O)C(=O)N[C@@H](Cc2cccc3ccccc23)C(=O)N1 (cyclo([1Nal][β3hL][Aib][Asu])) |  |  | 0.87 |  |  |
| CC(C)C[C@H]1CC(=O)N[C@@H](C)C(=O)N[C@@H](CSCCC(=O)O)C(=O)N[C@@H](Cc2c[nH]c3ccccc23)C(=O)N1 (cyclo(C(CH2CH2COOH)W[β3hL]A)) | > 10 | 7.08 | 6.05 | 4.84 |  |
| CCC(=O)CCCCC[C@@H]1NC(=O)C[C@H](CC(C)C)NC(=O)[C@H](Cc2c[nH]c3ccccc23)NC(=O)[C@H](CCCCCC(=O)CC)NC1=O | > 10 | 0.26 | 1.4 | 0.15 |  |
| CCC(=O)CCSC[C@@H]1NC(=O)[C@H](C)NC(=O)C[C@H](CC(C)C)NC(=O)[C@H](Cc2c[nH]c3ccccc23)NC1=O (cyclo(AC(X1)W[β3hL])) | > 10 | > 10 | > 10 | > 10 |  |
| CC(C)C[C@H]1CC(=O)N[C@@H](C)C(=O)N[C@@H](CCCCCC(=O)O)C(=O)N[C@@H](Cc2cccc3ccccc23)C(=O)N1 (cyclo([Asu][1Nal][β3hL]A)) |  | 0.99 |  | 0.2 | IC50 [10]: 0.377 µM; IC50 [13]: 0.205 µM |

Source: ChEMBL document CHEMBL1156016, “Discovery of potent and selective histone deacetylase inhibitors via focused combinatorial libraries of cyclic alpha3beta-tetrapeptides” (J Med Chem, 2009)
